Measured values as given in patent US20110097380A1, “CLONIDINE FORMULATIONS HAVING ANTIMICROBIAL PROPERTIES” (Warsaw Orthopedic, Inc., priority 2009, published 2011).

How the values were obtained:
Experiment in all cases: Film inoculated on Tryptic Soy Agar plate: growth, zone of inhibition, scraping/streak
Format in all cases: cell-based
Conditions in all cases: after 4 days
[1] = test system: Candida albicans ATCC 10231
Procedure: (§1) Each film sample was individually placed on the surface of a Tryptic Soy Agar (TSA) plate in an aseptic manner. Each film was individually inoculated with 1 mL of one of the three (3) challenge organisms shown below. For each challenge organism, one “Sample Film” and one “Control Film” were inoculated. Due to the anticipated slow absorption of the challenge inoculum by the test samples, the inoculum was dispensed onto each film sample very slowly. After inoculation, each sample was carefully moved to incubation at the temperature range appropriate for the inoculated challenge organism and incubated for four (4) days. Each day of incubation, all plates were removed from incubation for visual and stereoscopic evaluation. Upon evaluation, the presence or absence of growth on the plate and/or on the sample was noted. In addition, the sample was evaluated for the presence or absence of a zone of inhibition around the sample. The presence or absence of a zone was reported as “Z” for Zone (size in mm) or “NZ” for no zone present. [table] Additional Test Information: • G=Growth • NG=No Growth • Z=Zone (in mm) • NZ=No Zone • Additional Information/Observations: At the conclusion of the testing period, all test samples were individually removed from the agar surface and gently shaken to remove any excess moisture remaining on the surface of the sample. The samples were then individually examined under the stereoscope by a laboratory technician. […] Following the documentation of the observations above, each sample was scraped with an inoculating loop on the inoculated, top side of each sample to determine whether macroscopic growth could be visually observed. […] The following is a summary of findings from this portion of the test: […]

[2] = test system: Staphylococcus aureus ATCC 6538
Procedure: as §1

[3] = test system: Escherichia coli ATCC 8739
Procedure: as §1

Clc1cccc(Cl)c1N=C1NCCN1 [clonidine, 2,6-dichloro-N-2-imidazolidinyldenebenzenamine]
inhibited growth: growth of fungus (C. albicans) [1] | growth of gram positive bacteria (S. aureus) [2] | growth of gram negative bacteria (E. coli) [3]
